Assay results published in ChEMBL document CHEMBL1201862, “PubChem BioAssay data set” (2004).
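Tested at 5 concentrations; 48 h exposure; 96-well plates; endpoints linearly interpolated, else capped at highest concentration. GI50: concentration for 50% inhibition of growth.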 Active and inactive are the calls of the source. Rule as the data show it: active = GI50 up to about 1.1 µM and inactive = higher.

How the values were obtained:
Experiment in all cases: NCI-60 cell line screen, 48 h
IGROV-1 = test system: IGROV-1
OVCAR-4 = test system: OVCAR-4
HOP-62 = test system: HOP-62
Hs-578T = test system: Hs-578T
K562 = test system: K562
OVCAR-5 = test system: OVCAR-5
SNB-75 = test system: SNB-75
MDA-MB-231 = test system: MDA-MB-231
OVCAR-3 = test system: OVCAR-3
UACC-62 = test system: UACC-62
M14 = test system: M14
A549 = test system: A549
OVCAR-8 = test system: OVCAR-8
HCT-15 = test system: HCT-15
NCI/ADR-RES = test system: NCI/ADR-RES
HL-60 = test system: HL-60
Malme-3M = test system: Malme-3M

| SMILES | GI50 (IGROV-1) | GI50 (OVCAR-4) | GI50 (HOP-62) | GI50 (Hs-578T) | GI50 (K562) | GI50 (OVCAR-5) | GI50 (SNB-75) | GI50 (MDA-MB-231) | GI50 (OVCAR-3) | GI50 (UACC-62) | GI50 (M14) | GI50 (A549) | GI50 (OVCAR-8) | GI50 (HCT-15) | GI50 (NCI/ADR-RES) | GI50 (HL-60) | GI50 (Malme-3M) |
| --- | --- | --- | --- | --- | --- | --- | --- | --- | --- | --- | --- | --- | --- | --- | --- | --- | --- |
| Nc1c(-c2ccccc2)c2ccc([N+](=O)[O-])cc2c(=O)n1-c1cccc(C(=O)O)c1 | > 100 µM (inactive) | > 100 µM (inactive) | > 100 µM (inactive) | 61.2 µM (inactive) | > 100 µM (inactive) | > 100 µM (inactive) | > 100 µM (inactive) | > 100 µM (inactive) | > 100 µM (inactive) | > 100 µM (inactive) | > 100 µM (inactive) | > 100 µM (inactive) | > 100 µM (inactive) | > 100 µM | > 100 µM (inactive) | 38.3 µM (inactive) | – |
| O=c1[nH]nc(Cc2ccccc2)n1CCCl | > 100 µM (inactive) | > 100 µM (inactive) | > 100 µM (inactive) | > 100 µM (inactive) | > 100 µM (inactive) | > 100 µM (inactive) | > 100 µM (inactive) | > 100 µM (inactive) | > 100 µM (inactive) | > 100 µM (inactive) | > 100 µM (inactive) | – | > 100 µM (inactive) | > 100 µM | > 100 µM (inactive) | > 100 µM (inactive) | > 100 µM (inactive) |
| CC(C)=CC1C(COC(=O)c2cc3c(cc2Cl)OCO3)C1(C)C (centres undefined) | 45.2 µM (inactive) | 28.4 µM (inactive) | 38.3 µM (inactive) | 13.1 µM (inactive) | 34.4 µM (inactive) | 60.4 µM (inactive) | – | 73.6 µM (inactive) | 25.2 µM (inactive) | 36.1 µM (inactive) | 38.7 µM (inactive) | 34.2 µM (inactive) | 34.8 µM (inactive) | 29 µM | 35.6 µM (inactive) | 20.9 µM (inactive) | 14.2 µM (inactive) |
| CCC(=O)C(CCN1CCC(N2C(=O)C(CCC#N)c3ccccc32)CC1)(c1ccccc1)c1ccccc1 (centres undefined) | 14.6 µM (inactive) | – | 17.9 µM (inactive) | 9.57 µM (inactive) | 3.8 µM (inactive) | 22.3 µM (inactive) | 12.9 µM (inactive) | 7.36 µM (inactive) | 10.9 µM (inactive) | 15.6 µM (inactive) | 10.1 µM (inactive) | 14 µM (inactive) | 11.4 µM (inactive) | 13.1 µM | 11.5 µM (inactive) | 4.67 µM (inactive) | 12.1 µM (inactive) |
| O=C(O)C1C(=O)Oc2c(cccc2[N+](=O)[O-])C1O (centres undefined) | > 100 µM (inactive) | > 100 µM (inactive) | > 100 µM (inactive) | > 100 µM (inactive) | > 100 µM (inactive) | > 100 µM (inactive) | > 100 µM (inactive) | > 100 µM (inactive) | > 100 µM (inactive) | > 100 µM (inactive) | > 100 µM (inactive) | > 100 µM (inactive) | > 100 µM (inactive) | > 100 µM | > 100 µM (inactive) | > 100 µM (inactive) | > 100 µM (inactive) |
| O=C(C/C(=N/O)C(F)(F)F)c1cccs1 | > 100 µM (inactive) | > 100 µM (inactive) | > 100 µM (inactive) | > 100 µM (inactive) | > 100 µM (inactive) | > 100 µM (inactive) | > 100 µM (inactive) | > 100 µM (inactive) | 67.8 µM (inactive) | > 100 µM (inactive) | > 100 µM (inactive) | > 100 µM (inactive) | > 100 µM (inactive) | > 100 µM | > 100 µM (inactive) | > 100 µM (inactive) | – |
| CCc1nc(N)nc(N)c1-c1ccc([N+](=O)[O-])c(Cl)c1 | 3.31 µM (inactive) | 46.5 µM (inactive) | 7.53 µM (inactive) | 32.4 µM (inactive) | 0.227 µM (active) | 25.2 µM (inactive) | 28.2 µM (inactive) | 37.3 µM (inactive) | 11.5 µM (inactive) | 1.73 µM (inactive) | 2.65 µM (inactive) | 0.416 µM (active) | 3.7 µM (inactive) | 1.35 µM | 5.83 µM (inactive) | 0.855 µM (active) | > 100 µM (inactive) |
| CCOS(C)(=O)=O [METHANESULFONIC ACID ETHYL ESTER] | > 100 µM (inactive) | > 100 µM (inactive) | – | > 100 µM (inactive) | > 100 µM (inactive) | > 100 µM (inactive) | – | > 100 µM (inactive) | > 100 µM (inactive) | > 100 µM (inactive) | > 100 µM (inactive) | > 100 µM (inactive) | > 100 µM (inactive) | > 100 µM | > 100 µM (inactive) | > 100 µM (inactive) | > 100 µM (inactive) |
